Where two headings read alike, the source gives them in different places.

The subject of the experiment is HCV replicon (strain 1b) in HUH-7 cells. The experiment is described as follows: HCV replicon FRET assay. In kind it is cell-based. The following applies: Hepatitis C virus. The text has this:
An HCV replicon whole cell system was established as described by Lohmann V, Korner F, Koch J, Herian U, Theilmann L, Bartenschlager R., Science 285(5424): 110-3 (1999). This system enabled us to evaluate the effects of our HCV Protease compounds on HCV RNA replication. Briefly, using the HCV strain 1b sequence described in the Lohmann paper (Assession number:AJ238799), an HCV cDNA was synthesized by Operon Technologies, Inc. (Alameda, Calif.), and the full-length replicon was then assembled in plasmid pGem9zf(+) (Promega, Madison, Wis.) using standard molecular biology techniques. The replicon consists of (i) the HCV 5′ UTR fused to the first 12 amino acids of the capsid protein, (ii) the neomycin phosphotransferase gene (neo), (iii) the IRES from encephalomyocarditis virus (EMCV), and (iv) HCV NS3 to NS5B genes and the HCV 3′ UTR. Plasmid DNAs were linearized with ScaI and RNA transcripts were synthesized in vitro using the T7 MegaScript transcription kit (Ambion, Austin, Tex.) according to manufacturer's directions. In vitro transcripts of the cDNA were transfected into the human hepatoma cell line, HUH-7. […] Resulting cell lines were characterized for positive and negative strand RNA production and protein production over time.
The HCV replicon FRET assay was developed to monitor the inhibitory effects of compounds described in the disclosure on HCV viral replication. HUH-7 cells, constitutively expressing the HCV replicon, were grown in Dulbecco's Modified Eagle Media (DMEM) (Gibco-BRL) containing 10% Fetal calf serum (FCS) (Sigma) and 1 mg/ml G418 (Gibco-BRL). Cells were seeded the night before (1.5×10^4 cells/well) in 96-well tissue-culture sterile plates. Compound and no compound controls were prepared in DMEM containing 4% FCS, 1:100 Penicillin/Streptomysin (Gibco-BRL), 1:100 L-glutamine and 5% DMSO in the dilution plate (0.5% DMSO final concentration in the assay). Compound/DMSO mixes were added to the cells and incubated for 4 days at 37° C. After 4 days, cells were first assessed for cytotoxicity using alamar Blue (Trek Diagnotstic Systems) for a CC50 reading. The toxicity of compound (CC50) was determined by adding 1/10th volume of alamar Blue to the media incubating the cells. After 4 h, the fluorescence signal from each well was read, with an excitation wavelength at 530 nm and an emission wavelength of 580 nm, using the Cytofluor Series 4000 (Perspective Biosystems). Plates were then rinsed thoroughly with Phosphate-Buffered Saline (PBS) (3 times 150 μl).
In general terms: A replicon is a self-replicating genome or part of one, used to study replication in cells.

As to `COc1ccc2c(O[C@@H]3C[C@H]4C(=O)N[C@]5(C(=O)NS(=O)(=O)C6CC6)C[C@H]5/C=C\CCCCC[C@H](Nc5ccc(OC)nc5)C(=O)N4C3)nccc2c1` (single isomer, unassigned) [Compound 1], the EC50 came to 21 nM (96 h, HUH-7 replicon cells, 4 days, read-out: EC50 value in the replicon FRET assay); 20.5 nM (Huh-7, Table 2, replicon assay variant and unit inferred, read-out: EC50).

Usually EC50 stands for the concentration giving half of the maximal effect.

The values are drawn from patent publication US20090285773A1, “Hepatitis C Virus Inhibitors” (Bristol-Myers Squibb Company, priority 2008, published 2009).
